# Experimental data taken from patent US9387135B2, “Absorbent article” (UNICHARM CORPORATION, priority 2012, dated 2016).
# Key:
# [1] = Surface tension of blood containing blood modifying agent, pendant drop method; details: 0.10 mass % in sheep defibrinated blood, 35 ° C.
# Method: The surface tension of blood containing a blood modifying agent was measured by the pendant drop method, using a Drop Master500 contact angle meter by Kyowa Interface Science Co., Ltd. The surface tension was measured after adding a prescribed amount of blood modifying agent to sheep defibrinated blood, and thoroughly shaking. The measurement was accomplished automatically with a device, and the surface tension γ was determined by the following formula (see FIG. 13). γ=g×ρ×(de)^2×1/H The density ρ was measured at the temperatures listed in Table 5, according to JIS K 2249-1995, “Density test methods and density/mass/volume conversion tables”, “5. Vibrating density test method”. The measurement was accomplished using a DA-505 by Kyoto Electronics Co., Ltd.
# [2] = Source text: The term “solubility” used herein in regard to water solubility includes cases where the sample completely dissolves in deionized water to form a homogeneous mixture, and cases where the sample is completely emulsified. Here, “completely” means that no mass of the sample remains in the deionized water.
Water solubility [2] [g],SMILES,Surface tension [1] [mN/m]
,"CCCCCCCCCCCCOC(=O)CCCCCCCCCCC [ELECTOL WE20, Ester of dodecanoic acid (C12) and dodecyl alcohol (C12)]",58.8
<0.05,CCCCCCCC(=O)OCC(COC(=O)CCCCCCC)OC(=O)CCCCCCC [PANACET 800],
